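Exposure lasted 48 hours, with cells grown in 96-well plates and compounds tested at five concentrations. The concentration for full growth arrest is given as TGI.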
Experiments:
Experiment in all cases: DTP human tumour cell line panel, 48 h
[1] = tested on: MDA-N
[2] = tested on: HCC-2998 colon
[3] = tested on: SK-MEL-2 melanoma
[4] = tested on: SF-268 CNS
[5] = tested on: DU-145 prostate
[6] = tested on: MDA-MB-435
[7] = tested on: HS 578T breast
[8] = tested on: UACC-257 melanoma
[9] = tested on: SK-MEL-5 melanoma
[10] = tested on: BT-549 breast
[11] = tested on: MDA-MB-231 breast
[12] = tested on: OVCAR-5 ovarian
[13] = tested on: NCI-H23 lung
[14] = tested on: CAKI-1 renal
[15] = tested on: UO-31 renal
[16] = tested on: LOX IMVI melanoma
[17] = tested on: ACHN renal
[18] = tested on: 786-0 renal
[19] = tested on: SNB-19 CNS
[20] = tested on: HOP-62 NSCLC
[21] = tested on: T-47D breast
[22] = tested on: MCF7 breast
[23] = tested on: U251 CNS
[24] = tested on: NCI-H522 lung
[25] = tested on: UACC-62 melanoma
[26] = tested on: HOP-92 NSCLC
[27] = tested on: IGROV1 ovarian
[28] = tested on: NCI/ADR-RES ovarian
[29] = tested on: M14 melanoma
[30] = tested on: SF-295 CNS
[31] = tested on: SNB-75 CNS
[32] = tested on: HL-60(TB) leukemia
[33] = tested on: SW-620 colon
[34] = tested on: HT29 colon
[35] = tested on: COLO 205 colon
[36] = tested on: RXF 393 renal
[37] = tested on: NCI-H460 lung
[38] = tested on: OVCAR-4 ovarian
[39] = tested on: MOLT-4 leukemia
[40] = tested on: KM12 colon
[41] = tested on: HCT-15 colon
[42] = tested on: RPMI-8226 leukemia
[43] = tested on: EKVX NSCLC
[44] = tested on: PC-3 prostate
[45] = tested on: K-562 leukemia
[46] = tested on: SK-OV-3 ovarian
[47] = tested on: SF-539 CNS
[48] = tested on: SN12C renal
[49] = tested on: TK-10 renal
[50] = tested on: MALME-3M melanoma
[51] = tested on: A498 renal
[52] = tested on: SR leukemia
[53] = tested on: SK-MEL-28 melanoma
[54] = tested on: CCRF-CEM leukemia
[55] = tested on: OVCAR-8 ovarian
[56] = tested on: OVCAR-3 ovarian
[57] = tested on: HCT-116 colon
[58] = tested on: A549 NSCLC
[59] = tested on: NCI-H226 lung

COc1cc2oc3c(c(=O)c2c(O)c1/C=C/C(C)C)CCC(C)(C)Oc1cc(O)ccc1-3
TGI [1]: 25.6 µM
TGI [2]: 27.5 µM
TGI [3]: 30.2 µM
TGI [4]: 32.2 µM
TGI [5]: 97.9 µM
TGI [6]: 39.8 µM
TGI [7]: 31.2 µM
TGI [8]: 29.2 µM
TGI [9]: 39.9 µM
TGI [10]: 31.6 µM
TGI [11]: 32.4 µM
TGI [12]: 30.7 µM
TGI [13]: 30.1 µM
TGI [14]: 30.6 µM
TGI [15]: 25.8 µM
TGI [16]: > 100 µM
TGI [17]: 27.1 µM
TGI [18]: 47.1 µM
TGI [19]: 30.7 µM
TGI [20]: 28.9 µM
TGI [21]: > 100 µM
TGI [22]: 26.7 µM
TGI [23]: 66.1 µM
TGI [24]: 38.1 µM
TGI [25]: 30.3 µM
TGI [26]: 34.3 µM
TGI [27]: 40.6 µM
TGI [28]: 39.3 µM
TGI [29]: 23 µM
TGI [30]: 27.7 µM
TGI [31]: 33.1 µM
TGI [32]: 45.4 µM
TGI [33]: 51.8 µM
TGI [34]: 19.2 µM
TGI [35]: 66.9 µM
TGI [36]: 24.4 µM
TGI [37]: 21.3 µM
TGI [38]: 28.6 µM
TGI [39]: 35 µM
TGI [40]: 21.8 µM
TGI [41]: 21.8 µM
TGI [42]: 45.5 µM
TGI [43]: 47.6 µM
TGI [44]: 28.4 µM
TGI [45]: 13.6 µM
TGI [46]: 34.8 µM
TGI [47]: 26.2 µM
TGI [48]: 27.4 µM
TGI [49]: 28.7 µM
TGI [50]: 41.4 µM
TGI [51]: 42.6 µM
TGI [52]: 20 µM
TGI [53]: 40.2 µM
TGI [54]: 57.6 µM
TGI [55]: 31.4 µM
TGI [56]: 29 µM
TGI [57]: 65.9 µM
TGI [58]: 27.1 µM

Cc1ccc(/C=N/Nc2ccccn2)s1
TGI [1]: > 100 µM
TGI [2]: > 100 µM
TGI [3]: > 100 µM
TGI [4]: > 100 µM
TGI [5]: > 100 µM
TGI [6]: > 100 µM
TGI [7]: > 100 µM
TGI [8]: > 100 µM
TGI [9]: > 100 µM
TGI [10]: > 100 µM
TGI [11]: > 100 µM
TGI [12]: > 100 µM
TGI [13]: > 100 µM
TGI [14]: > 100 µM
TGI [15]: > 100 µM
TGI [16]: > 100 µM
TGI [17]: > 100 µM
TGI [59]: > 100 µM
TGI [18]: > 100 µM
TGI [19]: > 100 µM
TGI [20]: > 100 µM
TGI [21]: > 100 µM
TGI [22]: > 100 µM
TGI [23]: > 100 µM
TGI [24]: > 100 µM
TGI [25]: > 100 µM
TGI [26]: > 100 µM
TGI [27]: > 100 µM
TGI [28]: > 100 µM
TGI [29]: > 100 µM
TGI [30]: > 100 µM
TGI [31]: > 100 µM
TGI [32]: > 100 µM
TGI [33]: > 100 µM
TGI [34]: > 100 µM
TGI [35]: > 100 µM
TGI [36]: > 100 µM
TGI [37]: > 100 µM
TGI [38]: > 100 µM
TGI [39]: > 100 µM
TGI [40]: > 100 µM
TGI [41]: > 100 µM
TGI [42]: > 100 µM
TGI [43]: > 100 µM
TGI [44]: > 100 µM
TGI [46]: > 100 µM
TGI [47]: > 100 µM
TGI [48]: > 100 µM
TGI [49]: > 31.6 µM
TGI [50]: > 100 µM
TGI [51]: > 100 µM
TGI [52]: > 100 µM
TGI [53]: > 100 µM
TGI [54]: > 100 µM
TGI [55]: > 100 µM
TGI [56]: > 100 µM
TGI [57]: > 100 µM
TGI [58]: > 100 µM

O=C(c1ccccc1)C(C(=O)c1ccccc1)c1nc2ccccc2sc1=O
TGI [1]: > 25 µM
TGI [2]: > 25 µM
TGI [3]: > 25 µM
TGI [4]: > 25 µM
TGI [5]: > 25 µM
TGI [6]: > 25 µM
TGI [7]: > 25 µM
TGI [8]: > 25 µM
TGI [9]: > 25 µM
TGI [10]: > 25 µM
TGI [11]: > 25 µM
TGI [12]: > 25 µM
TGI [13]: > 25 µM
TGI [14]: > 25 µM
TGI [15]: > 25 µM
TGI [16]: > 25 µM
TGI [17]: > 25 µM
TGI [59]: 23 µM
TGI [18]: > 25 µM
TGI [19]: > 25 µM
TGI [20]: > 25 µM
TGI [21]: > 25 µM
TGI [22]: > 25 µM
TGI [23]: > 25 µM
TGI [24]: > 25 µM
TGI [25]: 24 µM
TGI [26]: 13 µM
TGI [27]: > 25 µM
TGI [28]: > 25 µM
TGI [29]: > 25 µM
TGI [30]: > 25 µM
TGI [32]: > 25 µM
TGI [33]: > 25 µM
TGI [34]: > 25 µM
TGI [35]: > 25 µM
TGI [36]: > 25 µM
TGI [37]: > 25 µM
TGI [38]: > 25 µM
TGI [39]: > 25 µM
TGI [40]: > 25 µM
TGI [41]: > 25 µM
TGI [42]: > 25 µM
TGI [43]: > 25 µM
TGI [44]: > 25 µM
TGI [45]: > 25 µM
TGI [46]: > 25 µM
TGI [47]: > 25 µM
TGI [48]: > 25 µM
TGI [49]: > 25 µM
TGI [50]: > 25 µM
TGI [51]: > 25 µM
TGI [53]: > 25 µM
TGI [54]: > 25 µM
TGI [55]: > 25 µM
TGI [56]: > 25 µM
TGI [57]: > 25 µM
TGI [58]: > 25 µM

CCOC(=O)c1nc2cc(C(F)(F)F)ccc2nc1Nc1cc(OC)c(OC)c(OC)c1
TGI [1]: > 100 µM
TGI [2]: > 100 µM
TGI [4]: > 100 µM
TGI [5]: > 100 µM
TGI [6]: > 100 µM
TGI [7]: > 100 µM
TGI [8]: > 100 µM
TGI [9]: > 100 µM
TGI [10]: > 100 µM
TGI [11]: > 100 µM
TGI [12]: > 100 µM
TGI [13]: > 100 µM
TGI [14]: > 100 µM
TGI [15]: > 100 µM
TGI [16]: > 100 µM
TGI [17]: > 100 µM
TGI [59]: > 100 µM
TGI [18]: > 100 µM
TGI [19]: > 100 µM
TGI [20]: > 100 µM
TGI [21]: > 100 µM
TGI [22]: > 100 µM
TGI [23]: > 100 µM
TGI [24]: > 100 µM
TGI [25]: > 100 µM
TGI [26]: > 100 µM
TGI [27]: > 100 µM
TGI [28]: > 100 µM
TGI [29]: > 100 µM
TGI [30]: > 100 µM
TGI [31]: > 100 µM
TGI [32]: > 100 µM
TGI [33]: > 100 µM
TGI [34]: > 100 µM
TGI [35]: > 100 µM
TGI [36]: > 100 µM
TGI [37]: > 100 µM
TGI [39]: > 100 µM
TGI [40]: > 100 µM
TGI [41]: > 100 µM
TGI [42]: > 100 µM
TGI [43]: > 100 µM
TGI [44]: > 100 µM
TGI [45]: > 100 µM
TGI [46]: > 100 µM
TGI [47]: > 100 µM
TGI [48]: > 100 µM
TGI [49]: > 100 µM
TGI [50]: > 100 µM
TGI [51]: > 100 µM
TGI [52]: > 100 µM
TGI [53]: > 100 µM
TGI [54]: > 100 µM
TGI [55]: > 100 µM
TGI [56]: > 100 µM
TGI [57]: > 100 µM
TGI [58]: > 100 µM

CCC/C=C/C=C/C(=O)OC1C(C)C2(O)C3C=C(C)C(=O)C3CC(COC(C)=O)=CC2C2C(C)(C)C12OC(=O)C(C)C (stereo not drawn)
TGI [1]: 20.1 µM
TGI [2]: 14.7 µM
TGI [3]: 35.2 µM
TGI [4]: 28.4 µM
TGI [5]: > 100 µM
TGI [6]: 18.3 µM
TGI [7]: 55.4 µM
TGI [8]: 31.8 µM
TGI [9]: 19.2 µM
TGI [10]: 35.1 µM
TGI [11]: 20.2 µM
TGI [12]: 47.9 µM
TGI [13]: 26.9 µM
TGI [14]: 33.9 µM
TGI [15]: 29.4 µM
TGI [16]: 34.8 µM
TGI [17]: 39.3 µM
TGI [59]: 42.1 µM
TGI [18]: 23.1 µM
TGI [19]: 52.6 µM
TGI [20]: 0.0586 µM
TGI [21]: 35.4 µM
TGI [22]: 32 µM
TGI [24]: 26.8 µM
TGI [25]: 16.3 µM
TGI [26]: 27.2 µM
TGI [27]: 33.1 µM
TGI [28]: 47.3 µM
TGI [29]: 27.7 µM
TGI [30]: 22.1 µM
TGI [31]: 36.1 µM
TGI [32]: > 48.3 µM
TGI [33]: 20.4 µM
TGI [34]: 25 µM
TGI [35]: 9.18 µM
TGI [36]: 33.6 µM
TGI [37]: > 83.7 µM
TGI [38]: 57.6 µM
TGI [39]: 16.2 µM
TGI [40]: 32 µM
TGI [42]: 52.5 µM
TGI [43]: 42.5 µM
TGI [44]: 27.3 µM
TGI [45]: > 68.6 µM
TGI [46]: > 100 µM
TGI [47]: 25 µM
TGI [48]: 23.5 µM
TGI [49]: 47.1 µM
TGI [50]: 26.5 µM
TGI [51]: 44.9 µM
TGI [52]: 35.8 µM
TGI [53]: 26.1 µM
TGI [54]: 19.1 µM
TGI [55]: 55.8 µM
TGI [56]: 32.8 µM
TGI [57]: 26.8 µM
TGI [58]: > 100 µM

Source: PubChem BioAssay (NCI)
